Laboratory results: patent US10898522B2, “Compositions and methods for treating graft versus host disease” (Children's Research Institute, Children's National Medical …, priority 2015, dated 2021)
Entries after “also recorded” stand apart in the source; their conditions may differ.

Key:
HIF-1α [1] = assay: Western blot of human HIF-1α in spleen cells from GvHD mice after echinomycin; assay type: in vivo; conditions: echinomycin-treated GvHD mice compared to vehicle controls
Description: (§1) FIG. 4. HIF-1α accumulates in a high proportion of human T cells derived from spleen and BM of the recipients of human BMC: Impact of echinomycin. Panel A. Representative FACS plots showing the accumulation of HIF-1α in T cells from the spleen and BM of GvHD mice. Spleen and BM cells were isolated from the spleens and BM of GvHD mice, stained with anti-human CD45, CD4, CD8, and then intracellular stained with anti-human HIF-1α. Panel B. Representative FACS plots showing the accumulation of HIF-1α in all human cells from spleens of GvHD mice. Spleen cells were isolated from the spleens of GvHD mice, stained with anti-human CD45, CD4, CD8, and then intracellular stained with anti-human HIF-1α. FACS analysis was performed to determine the percentage of HIF-1α positive cells in CD45^+CD4^+CD8-, CD45^+CD4-D8^+ and CD45^+CD4-D8-subpopulations. Panel C. Representative FACS plots showing the percentage of HIF-1α positive T cells in spleen of GvHD mice after echinomycin treatment. […]
To test the significance of HIF-1α accumulation, GvHD recipient mice were treated with echinomycin, a selective inhibitor of HIF-1α. […] Further, spleen cells from GvHD mice were isolated and human HIF-1α protein levels from echinomycin-treated mice and vehicle controls were measured by western blot analysis. […]

HIF-1α [2] = assay: Intracellular FACS staining of HIF-1α in human T cells from spleen of GvHD mice after echinomycin; assay type: in vivo
Description: as §1
(§2) Spleens were gently grinded with frosted objective slides and bone marrow was dissociated with syringes to obtain single-cell suspensions and passed through a nylon cell strainer, washed three times with RPMI-1640, labeled with antibodies and analyzed for the presence of different human cell populations. […]

[3] = system: FoxP3+ human T cells (Treg); assay: FACS of FoxP3+ cells within CD4 T cell subset from spleen and BM of GvHD mice; assay type: in vivo; conditions: one dose of 100 μg/kg echinomycin vs vehicle
Description: as §1, §2

[4] = system: HIF-1α / leukemia stem cells; conditions: in vivo; cited from earlier work
humanized GvHD mice = assay: Treatment of humanized GvHD mice (newborn NSG pups transplanted with human BM cells) with echinomycin; assay type: in vivo, mouse
Procedure: FIG. 5. Sustained treatment of echinomycin protects mice against GvHD and eliminates expanded human leukocytes and inflammation. Panel A. Dosing regimen of echinomycin treatment for humanized GvHD mice. The day that mice were transplanted with human BM cells is defined as day 0. Each arrow represents one echinomycin treatment. The dose for each treatment is 10 μg/kg via intraperitoneal injection. Panel B. Longitudinal analysis of clinical representation of an echinomycin-treated mice. Panel C. Representative FACS plots showing the percentage of human CD45^+ cells in PBL of GvHD mice before and after echinomycin treatment. Data is one representative file from 3 mice and representative of three independent experiments. […] Data are representative of three independent experiments.
FIG. 6. Echinomycin protects mice against lethal GvHD. Panel A. Newborn NSG pups were transplanted with human 5×10^5 BM cells. The mice were treated with the dosing regimen of echinomycin listed in FIG. 5, Panel A. Panel B. Newborn NSG pups were transplanted with human 3×10^5 BM cells. The mice were treated with the dosing regimen of echinomycin listed in FIG. 5, Panel A, except treatment is started at day 17 rather than day 27. […] Data are representative of three independent experiments.
Human bone marrow mononuclear cells were isolated from healthy human adult bone marrow using density gradient separation were purchased from Stemcell Technologies (Vancouver, Canada) and Lonza (Walkersville, Md., USA). Human CD3^+ cells from BM were sorted from human BM cells using BD Influx (BD Biosciences). Cells were thawed, counted and re-suspended in 1×PBS in a concentration of 0.1-0.5×10^6 per 30 μl. 0.1-0.5×10^6 cells were transplanted via intrahepatic injection into irradiated (1.30 Gy) newborn NSG pups. Human CD45^+ cells in PBMC of recipients were detected by FACS analysis at day 17 to 20 after transplantation.
Peripheral blood was collected by sub-mandibular bleeding at different times after transplantation of human BM cells. Fluorochrome-labeled antibodies were directly added into whole blood. After 30 min of staining, the unbound antibodies were washed away and the red blood cells were lysed with BD FACS™. The stained cells were analyzed with BD FACS Canto II flow cytometry.
Immunohistochemistry was performed on tissue sections from skin, liver, lung, spleen, and kidney of humanized NSG mice. Sections were fixed with 4% paraformaldehyde and dehydrated with graded alcohol. After treatment with heated citrate buffer for antigen retrieval, sections were blocked for endogenous peroxidase activity. Sections were then incubated in 10% goat serum followed by primary antibodies at 4° C. overnight. Fixed samples were stained with the following antibodies, anti-human CD45 (MEM-28) and CD3 (ab828, Abcam PLC, Cambridge, Mass.), for detection of infiltrated human cells. After incubation for 30 minutes with secondary antibody, the specimens were visualized by DAB treatment. Sections were lightly counterstained with hematoxylin to enable visualization of nuclei.
Newborn NSG pups received 0.3-0.5×10^6 human BM cells intrahepatically. Beginning on day 17 or 27, the recipients received 5 intraperitoneal injections of echinomycin, daily at 10 μg/kg. Following 2 days of rest, another 5 intraperitoneal injections of echinomycin were administered at the same dose, once per day. The second round of treatment was performed following 5 days of rest from the prior round of treatment, using the same dose once every other day for 10 total treatments.
To better understand the importance of HIF-1α in the therapy of GvHD, the effect of HIF-1α inhibition was examined. Newborn pups were transplanted with 0.5×10^6 human BM cells via intra-hepatic injection. Twenty-seven days after transplantation, mice were treated with 10 μg/kg of echinomycin for a total of 20 treatments. […]

CS[C@H]1SC[C@H]2C(=O)N(C)[C@@H](C(C)C)C(=O)OC[C@@H](NC(=O)c3cnc4ccccc4n3)C(=O)N[C@@H](C)C(=O)N(C)[C@@H]1C(=O)N(C)[C@@H](C(C)C)C(=O)OC[C@@H](NC(=O)c1cnc3ccccc3n1)C(=O)N[C@@H](C)C(=O)N2C [echinomycin]
HIF-1α protein levels in spleen cells (western blot) (HIF-1α [1]): significantly decreased
HIF-1α protein in HIF-1α+ T cells of spleen (FACS) (HIF-1α [2]; single dose of 100 μg/kg echinomycin, overnight): lost HIF-1α protein overnight
T cell frequencies (HIF-1α [2]; single dose of echinomycin): largely unaffected
proportion of Tregs (FoxP3+ cells within CD4 T cell subset) [3]: no apparent difference
proportion of Tregs (FoxP3+ cells within CD4 T cell subset) ([3]; listed as Echinomycin): does not expand human Treg
adverse reactions towards hematopoietic stem cells [4]: without adverse reactions
efficacy in experimental leukemia and lymphoma [4]: effective in treating experimental leukemia and lymphoma
median survival (humanized GvHD mice; 0.3×10^6 human BM cells, treatment started day 17, 10 μg/kg i.p.): 119 days
survival during the treatment period (humanized GvHD mice; 0.5×10^6 BM cells, 10 μg/kg, 20 treatments from day 27, all vehicle treated mice died): survived
reduction of number of human leukocytes in the peripheral blood (humanized GvHD mice; 0.5×10^6 human BM cells, 10 μg/kg i.p. from day 27, over 5 weeks): more than 10 fold
median survival (humanized GvHD mice; 0.5×10^6 human BM cells, treatment started day 27, 10 μg/kg i.p.): 99 days
life span (Kaplan-Meier survival curve) compared with vehicle (humanized GvHD mice; 3×10^5 or 5×10^5 BM cells, regimen of FIG. 5 Panel A): significantly prolonged life span
mice protected against lethal GvHD (humanized GvHD mice; continuous treatment of echinomycin): ~100%
clinical symptoms (skin, hair) (humanized GvHD mice; one treated mouse, after two weeks of treatments, 10 μg/kg from day 27): regained smooth skin with visible regrowth of hair
human CD3+ T cells in organs (IHC) (humanized GvHD mice; skin, intestine, liver and lung, 10 μg/kg i.p. from day 27, day 75): elimination of T cells from all major organs; also recorded: significant reduction of CD3^+ cells
life span longer than that of mice treated starting at Day 27 (humanized GvHD mice; treatment started day 17 vs day 27): 20 days
